Columns and labels:
[1] = tested on: senescent cells in the liver; assay: Markers of senescence and SASP factors in liver of high fat diet mice by qRT-PCR; type: in vivo
Description: FIGS. 2A, 2B, 2C, and 2D. […] Mice were fed a high fat diet (HFD) or high fat diet with 60 mg/kg xanthohumol (HFD+XN) for 12 weeks. RNA was extracted from mice and analyzed by quantitative PCR for (A) p21^WAF1, (B) p16^INK4a, (C) p15^INK4b, and (D) SASP factors.
Prolonged high fat diet (HFD) induces the generation of senescent cells in the liver. To test the hypothesis that inhibitors of SRE-BP activation are senolytic, two groups of mice were fed a HFD for 12 weeks. A control group was fed a HFD alone (FIG. 2, HFD), and an experimental group (FIG. 2, HFD+XN) was fed a HFD and the SRE-BP activation inhibitor xanthohumol (XN). RNA was isolated from liver samples from each group and subjected to quantitative reverse transcriptase polymerase chain reaction (qRT-PCR). […] Accordingly, the data presented in FIG. 2D supports the hypothesis that SRE-BP activation inhibitors, e.g., xanthohumol, are senolytic.

IMR-90 fibroblasts = assay: Selective killing of senescent versus quiescent IMR-90 fibroblasts by SRE-BP activation inhibitors; type: cell-based; settings: 30 μM
Description: FIGS. 1A and 1B. SRE-BP activation inhibitors selectively kill senescent cells. IMR-90 fibroblasts were induced to senesce with either 10 Gy of ionizing radiation (IR), 250 nM doxorubicin [SEN(DOXO)], or quiescent vehicle control (QUI) for 24 hours. Media was then replaced with drug-free growth media, and senescence was allowed to develop for 12 days. On day 12, growth media (10% serum) was replaced with quiescence media (0.2% serum+ITS supplement) for 48 hours to induce quiescence in non-senescent cells. On day 14, media was replaced with quiescence media containing increasing doses of fatostatin (A), xanthohumol (B), PF-429242 (C), or 30 micromolar betulin (D). DMSO served as a 0 micromolar vehicle control. \<0.001

[2] = SASP factor, mice, HFD + 60 mg/kg xanthohumol for 12 weeks vs HFD alone, liver RNA, qRT-PCR
[3] = mice, HFD + 60 mg/kg xanthohumol for 12 weeks vs HFD alone, liver RNA, qRT-PCR

Row | Compound | expression of 2′, 5′ oligoadenylate synthetase 2 (Oas2) [1, 2] | expression of C-C motif chemokine 2 (Ccl2) [1, 2] | expression of arachidonate 5-lipoxygenase (Alox5) [1, 2] | expression of growth differentiation factor 15 (Gdf15) [1, 2] | expression of interleukin 6 (IL-6) [1, 2] | expression of matrix metalloproteinase 3 (MMP3) [1, 2] | expression of plasminogen activator, urokinase (Plau) [1, 2] | expression of prostaglandin-endoperoxide synthase 2 (Ptgs2) [1, 2] | expression of serpin family E member 1 (Serpine1), encoding plasminogen activator inhibitor 1 (PAI-1) [1, 2] | expression of marker of senescence p15^INK4b [1, 3] | expression of marker of senescence p16^INK4a [1, 3] | expression of marker of senescence p21^WAF1 [1, 3] | several genes characteristic of SASP in mouse livers ([1]; summary statement, after administration of xanthohumol, qRT-PCR) | markers of senescence in vivo ([1]; summary statement, mice, HFD + 60 mg/kg xanthohumol for 12 weeks vs HFD) | toxicity to senescent cells versus quiescent cells (IMR-90 fibroblasts)
1 | COc1cc(O)c(CC=C(C)C)c(O)c1C(=O)/C=C/c1ccc(O)cc1 [xanthohumol] | reduced expression | reduced expression | reduced expression | reduced expression | reduced expression | reduced expression | reduced expression | reduced expression | reduced expression | reduced expression | reduced expression | reduced expression | reduced | lowers markers of senescence | –
2 | C=C(C)[C@@H]1CC[C@]2(CO)CC[C@]3(C)[C@H](CC[C@@H]4[C@@]5(C)CC[C@H](O)C(C)(C)[C@@H]5CC[C@]43C)[C@@H]12 [betulin] | – | – | – | – | – | – | – | – | – | – | – | – | – | – | significantly more toxic to senescent cells than quiescent cells

— patent US20250049773A1, “INHIBITION OF STEROL RESPONSE ELEMENT BINDING PROTEINS AS ATARGET FOR SELECTIVE ELIMINATION OF SENESCENT CELLS” (Trustees of Tufts College, priority 2021, published 2025)
